Experiments:
[1] = Phase 2a clinical trial of Compound 102 (fasting plasma glucose, body weight); format: in vivo, human
Experimental: This Phase 2a clinical trial was conducted in the U.S. (103 subjects) and Korea (27 subjects). […] Subjects were treated with one of four active doses (100 mg once-daily (qd), 100 mg twice-daily (bid), 200 mg qd, or 200 mg bid) of Compound 102 or placebo for 4 weeks after having 3 weeks of placebo run-in. […] Body weights, as secondary endpoints, were measured at Day 1 and Day 29 and at the follow-up visit 1 week after treatment stopped, at Day 35. […] The effect was most pronounced in the U.S. subjects and in the 100 qd dose group.

human adipocytes = assay: Beige adipocyte gene expression by RT-PCR in primary cultured human adipocytes; format: cell-based
Experimental: (§1) Human adipocyte precursor cells isolated from subcutaneous abdominal fat were purchased from LaCell, LLC, New Orleans, La. Cells were seeded and grown to confluence in DMEM/F12 with 10% heat inactivated FBS. Differentiation to mature adipocytes was induced in medium composed of 70% DMEM and 30% DMEMF12 supplemented with 3% FBS, 1 μM dexamethasone (Sigma D4902), […] biotin (Sigma B4639), 100 nM insulin (Sigma 15500), 20 μM pantothenate (Sigma P5155), 5 μM rosiglitazone (AK Scientific F325) and […] (Sigma 15879) for four days. Cells were maintained in medium composed of 70% DMEM and 30% DMEMF12 supplemented with 3% FBS, 1 μM dexamethasone, 33 μM biotin, 100 nM insulin, and 20 NM pantothenate for seven days before experimental treatment.
A solution of 10 mM Compound 102 was prepared in DMSO and diluted to 60 μM or 30 μM in maintenance medium without dexamethasone for cell treatment. […]
(§2) Total RNA was isolated from adipocyte cultures grown in 12-well plates using Trizol and Qiagen RNAeasy kits. Reverse transcriptase and PCR were conducted in one reaction with the reverse PCR primer priming cDNA synthesis using SuperScript® III Platinum® One-Step Quantitative RT-PCR System with Rox from Invitrogen (11745). Predesigned Taqman primer-probe sets were purchased from Applied Biosystems for the following human transcript sequences: UCP1 (Hs249211), PPARGC1α (HS527078), PPARU (Hs103110), CPT1b (Hs439777), and GLUT4/SLC2A4 (Hs380691). Aplicons were designed to span an intron-exon junction to avoid amplification of genomic sequences. Each sample RT-PCR assay was conducted in duplicate.

[2] = system: primary cultured human adipocytes; assay: GLUT4 and UCP1 protein expression in primary cultured human adipocytes; format: cell-based; conditions: 7-day treatment period
Experimental: as §1
A solution of 10 mM Compound 102 was prepared in DMSO and diluted to 60 μM or 30 μM in maintenance medium without dexamethasone for cell treatment. In some experiments, cells were treated with 20 μM menthol (Sigma M2772).

[3] = system: UCP-1 adipose tissue protein; assay: UCP-1 adipose tissue protein in db/db mice (Western blot densitometry); format: in vivo; conditions: 100 mg/kg qd for 3 weeks, tissue 4 hours after last dose, FIG. 10
Experimental: Adipose tissue was collected 4 hours after the last dose of Compound 102.

[4] = system: Compound 102-induced UCP1 expression; assay: Effect of inhibitors on Compound 102-induced UCP1 expression; format: cell-based, human; conditions: over 4 days; LY294002 20 NM, H89 20 μM; FIG. 9
Experimental: as §1
as §2, with “Each sample RT-PCR assay was conducted in duplicate.” left out

[5] = Rodent oral glucose tolerance test; format: in vivo; conditions: FIG. 13
From the text: In contrast, menthol potentiates the insulin sensitizing action of Compound 102 in a rodent oral glucose tolerance test.

[6] = human adipocytes, day 4, FIG. 3

Cc1cccc(Oc2c[nH]c(=O)[nH]c2=O)c1 [Compound 102, 5-(m-tolyloxy)pyrimidine-2,4(1H,3H)-dione]
body weight loss over the 4-week treatment period ([1]; Day 1 to Day 29, secondary endpoint): statistically significant improvements in body weight loss
body weight 1 week after treatment (Day 35) compared to Day 29 ([1]; follow-up 1 week after treatment stopped, FIG. 2): all groups except for the 200 mg bid group showed continued loss
fasting plasma glucose (FPG) ([1]; subjects with HbA1c 7-10%, 100 mg qd, 100 mg bid, 200 mg qd or 200 mg bid for 4 weeks, FIG. 1): progressive reduction
GLUT4 mRNA (human adipocytes; 7-day treatment period, FIG. 4): continued to increase
UCP1 mRNA (human adipocytes; 7-day treatment period, FIG. 4): continued to increase
expression of the UCP1 activator PGC-1β (human adipocytes; FIG. 7): induced
expression of the UCP1 activator PPARα (human adipocytes; FIG. 7): induced
expression of TRPM8 menthol receptor mRNA (human adipocytes; FIG. 8): induced
expression of Adipose Triglyceride Lipase (ATGL) (human adipocytes; [6]): significant increases
expression of Carnitine palmitoyltransferase-Ib (CPT-1b) (human adipocytes; [6]): significant increases
expression of GLUT4 (human adipocytes; [6]): significant increases
expression of Transient Potential Melastatin 8 Receptor (TRPM8R) (human adipocytes; [6]): significant increases
expression of UCP-1 (human adipocytes; [6]): significant increases
expression of GLUT4 protein ([2]; FIG. 5): continued to exist
expression of UCP1 protein ([2]; FIG. 6): continued to exist
levels of UCP-1 adipose tissue protein [3]: Increased levels

O=S(=O)(NCCNC/C=C/c1ccc(Br)cc1)c1cccc2cnccc12 [Compound H89]
Compound 102-induced UCP1 mRNA in presence of inhibitor [4]: reduced UCP1 mRNA to levels of unstimulated controls or lower

COc1cc(CN(CCN)C(=O)OC(C)c2ccccc2)ccc1OCc1ccccc1 (centres unmarked) [PBMC]
Compound 102-induced UCP1 mRNA in presence of inhibitor [4]: reduced UCP1 mRNA to levels of unstimulated controls or lower

CC1CCC(C(C)C)C(O)C1 (centres unmarked) [menthol, reference compound]
insulin sensitization or glycemic control [5]: does effect insulin sensitization or glycemic control
UCP1 expression (human adipocytes; 7 day treatment, 30 μM menthol, 30 NM Compound 102, versus Compound 102 alone, FIG. 12 panel a): did not induce expression

Reference: patent US10786503B2, “Treatment of adipocytes” (Melior Pharmaceuticals I, Inc., priority 2017, dated 2020)
